Where two headings read alike, the source gives them in different places. Marks after values point to notes of the source that are not given here. Each block holds one molecule with its values, some of them ahead of it.
Experiments:
LdCYP5122A1 [1] = target: T1, LdCYP5122A1 (Leishmania donovani, UniProt A0A3S7X0B6)
T1 sequence (A0A3S7X0B6 61-592): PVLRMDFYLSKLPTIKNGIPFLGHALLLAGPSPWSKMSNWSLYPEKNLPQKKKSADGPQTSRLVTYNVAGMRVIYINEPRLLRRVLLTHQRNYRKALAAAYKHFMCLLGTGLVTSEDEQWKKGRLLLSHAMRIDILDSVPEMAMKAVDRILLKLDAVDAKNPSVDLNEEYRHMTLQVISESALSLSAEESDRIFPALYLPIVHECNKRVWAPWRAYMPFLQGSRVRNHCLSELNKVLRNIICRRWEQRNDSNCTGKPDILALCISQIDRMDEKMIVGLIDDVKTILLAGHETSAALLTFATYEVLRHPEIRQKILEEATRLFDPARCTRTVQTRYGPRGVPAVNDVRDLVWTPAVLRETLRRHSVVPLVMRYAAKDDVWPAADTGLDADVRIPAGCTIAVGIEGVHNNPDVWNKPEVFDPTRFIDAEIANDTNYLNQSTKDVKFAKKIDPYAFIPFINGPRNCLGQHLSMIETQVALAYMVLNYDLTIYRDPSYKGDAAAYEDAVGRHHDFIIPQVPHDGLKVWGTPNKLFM

[2] = test system: intracellular amastigotes; settings: ref Wang et al. (ref. 45); cited from earlier work
LdCYP51 [3] = target: T2, LdCYP51 (Leishmania donovani, UniProt A0A3S7WRS7); test: biochemical
T2 sequence (A0A3S7WRS7 32-480): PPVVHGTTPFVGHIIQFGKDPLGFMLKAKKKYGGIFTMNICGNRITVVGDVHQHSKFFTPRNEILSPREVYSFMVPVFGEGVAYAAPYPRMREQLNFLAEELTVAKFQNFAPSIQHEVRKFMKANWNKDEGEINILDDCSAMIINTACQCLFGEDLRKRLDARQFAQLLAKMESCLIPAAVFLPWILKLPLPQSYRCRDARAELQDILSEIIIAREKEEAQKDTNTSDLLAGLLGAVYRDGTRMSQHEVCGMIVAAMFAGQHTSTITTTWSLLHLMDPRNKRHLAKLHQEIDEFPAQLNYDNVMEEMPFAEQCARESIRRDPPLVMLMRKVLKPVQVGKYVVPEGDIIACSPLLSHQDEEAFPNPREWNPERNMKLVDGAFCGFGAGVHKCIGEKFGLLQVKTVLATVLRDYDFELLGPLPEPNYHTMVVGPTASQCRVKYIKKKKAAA

LdCYP5122A1 [4] = target: T1, LdCYP5122A1; test: biochemical
[5] = test system: intracellular L. donovani parasites; test: Intracellular L. donovani in infected peritoneal macrophage assay; format: cell-based, Leishmania donovani; settings: Supplementary Fig. 12
[6] = test system: L. donovani LV82 promastigote cultures; test: Microscopic counts of LV82 promastigote cultures; format: cell-based, Leishmania donovani; settings: LV82 promastigotes, cell counts daily for three days
[7] = test system: L. donovani strain 1S2D promastigotes (Ld1S WT and CYP5122A1 mutants); settings: 48 hours; for EC50: read-out: EC50, promastigote growth
[8] = test system: L. donovani strain 1S2D promastigotes (Ld1S WT and CYP5122A1 mutants); test: microbe, parasite or virus in culture; settings: Leishmania donovani, 48 h
L. donovani CYP51 = L. donovani CYP51 (Leishmania donovani, UniProt A0A3S7WRS7); test: UV-Vis difference binding spectra of ligands with purified recombinant CYP51
L. donovani CYP51, sequence (A0A3S7WRS7 32-480): as above

L. donovani CYP5122A1 = target: T3, L. donovani CYP5122A1 (Leishmania donovani, UniProt A0A3S7X0B6); test: UV-Vis difference binding spectra of ligands with purified recombinant CYP5122A1
T3 sequence (A0A3S7X0B6 61-592): T1 sequence (A0A3S7X0B6 61-592)

[9] = test system: intracellular amastigotes of L. infantum; settings: cited from earlier work; for EC50: read-out: EC50, elimination of intracellular amastigotes of L. infantum
[10] = test system: L. donovani LV82 promastigotes; test: microbe, parasite or virus in culture; settings: Leishmania donovani, 72 h, read-out: EC50 (L. donovani)
[11] = test system: sterol profile of LV82 promastigotes; test: LC-MS/MS sterol analysis of inhibitor-treated LV82 promastigotes; format: cell-based, Leishmania donovani; settings: 50 μM voriconazole vs. DMSO, 24 hr
LdCYP51 [12] = target: T2, LdCYP51
[13] = test system: intracellular L. major and L. amazonensis; settings: 10 μM; cited from earlier work

SI (selectivity index) = IC50 against LdCYP5122A1/IC50 against LdCYP51 (LdCYP5122A1 [1]): 3.5
IC50 (LdCYP51 [3]): 12000 ± 1000 nM
IC50 (LdCYP5122A1 [4]): 43000 ± 1000 nM
Structure (SMILES): CCCCCCCCCCCCCCCCOP(=O)([O-])OCC[N+](C)(C)C [Miltefosine]
IC50 vs. intracellular amastigotes (printed in column EC50 (L. donovani)) [2]: 2.7^e μM

Structure (SMILES): NC[C@@H]1O[C@H](O[C@H]2[C@@H](O)[C@H](O[C@@H]3[C@@H](O)[C@H](N)C[C@H](N)[C@H]3O[C@H]3O[C@H](CO)[C@@H](O)[C@H](O)[C@H]3N)O[C@@H]2CO)[C@H](N)[C@@H](O)[C@@H]1O [Paromomycin]
IC50 vs. intracellular amastigotes (printed in column EC50 (L. donovani)) [2]: >50^e μM

Structure (SMILES): CC[C@@H]([C@H](C)O)n1ncn(-c2ccc(N3CCN(c4ccc(OC[C@@H]5CO[C@@](Cn6cncn6)(c6ccc(F)cc6F)C5)cc4)CC3)cc2)c1=O [Posaconazole]
Effect on intracellular L. donovani parasites [5]: more effective than fluconazole
Leishmanicidal vs. leishmanistatic effect [6]: leishmanistatic effect
Concentration needed to inhibit growth further ([7]; Ld1S WT, bi-phasic response): more than 12 μM
EC50 ([8]; read-out: Concentration sufficient to reach EC50): 100 nM
EC50 ([8]; read-out: EC50, promastigote growth): ~25000 nM
Binding mode with CYP51 (difference binding spectrum) (L. donovani CYP51): type II binding
Binding mode with CYP5122A1 (difference binding spectrum) (L. donovani CYP5122A1): type II-like binding

SI (selectivity index) = IC50 against LdCYP5122A1/IC50 against LdCYP51 (LdCYP5122A1 [1]): 20
IC50 (LdCYP51 [3]): 54 ± 8 nM
IC50 (LdCYP5122A1 [4]): 1100 ± 200 nM
EC50 [10]: 9500 ± 600 nM
Structure (SMILES): Clc1ccc(C(Cn2ccnc2)OCc2ccsc2Cl)c(Cl)c1 (centres unmarked) [Tioconazole]
EC50 [9]: 4000 ± 200 nM

Structure (SMILES): C[C@@H](c1ncncc1F)[C@](O)(Cn1cncn1)c1ccc(F)cc1F [Voriconazole]
4,14-Dimethylzymosterol level normalized to DMSO-treated parasites [11]: 17 ± 2
4CH2OH-LS level normalized to DMSO-treated parasites [11]: 0.83 ± 0.09
5-Dehydroepisterol level normalized to DMSO-treated parasites [11]: 0.078 ± 0.043
7-Dehydrodesmosterol level normalized to DMSO-treated parasites [11]: 0^d,**
14-Methylfecosterol level normalized to DMSO-treated parasites [11]: Accumulated^a,***
14-Methylzymosterol level normalized to DMSO-treated parasites [11]: 8.0 ± 1.0
Cholesterol (exogenous) level normalized to DMSO-treated parasites [11]: 0.88 ± 0.07
Ergosta-5,7-dienol level normalized to DMSO-treated parasites [11]: 0.39 ± 0.11
Ergostatetraenol level normalized to DMSO-treated parasites [11]: 0.086 ± 0.027
Ergosterol level normalized to DMSO-treated parasites [11]: 0.30 ± 0.08
FF-MAS level normalized to DMSO-treated parasites [11]: Not detected
Lanosterol level normalized to DMSO-treated parasites [11]: 1.6 ± 0.2
T-MAS level normalized to DMSO-treated parasites [11]: Not detected
Zymosterol level normalized to DMSO-treated parasites ([11]; not separated from cholesta-7,24-dienol): 0.067 ± 0.034
4-Methylzymosterol level normalized to DMSO-treated parasites ([11]; not separated from episterol and fecosterol): 0.18 ± 0.06
Selectivity for CYP51 over CYP5122A1 (LdCYP51 [12]): > 1176 fold
SI (selectivity index) = IC50 against LdCYP5122A1/IC50 against LdCYP51 (LdCYP5122A1 [1]): >1176
EC50, elimination of intracellular amastigotes of L. infantum [9]: failed
Inhibition of intracellular parasites [13]: < 50%
IC50 (LdCYP51 [3]): 85 ± 17 nM
IC50 (LdCYP5122A1 [4]): > 100000 nM
inhibition at 100 µM (LdCYP5122A1 [4]; read-out: % inhibition of CYP5122A1 at 100 μM): < 28%
EC50 [10]: > 100000 nM
Binding mode with CYP51 (difference binding spectrum) (L. donovani CYP51): type II binding
Binding mode with CYP5122A1 (difference binding spectrum) (L. donovani CYP5122A1): no specific responses

SI (selectivity index) = IC50 against LdCYP5122A1/IC50 against LdCYP51 (LdCYP5122A1 [1]): 8.0
IC50 (LdCYP51 [3]): 81 ± 2 nM
IC50 (LdCYP5122A1 [4]): 650 ± 80 nM
EC50 [10]: 5600 ± 300 nM
Structure (SMILES): Clc1ccc(C(Cn2ccnc2)OCc2ccc(Sc3ccccc3)cc2)c(Cl)c1 (centres unmarked) [Fenticonazole]
EC50 [9]: 2900 ± 300 nM

Structure (SMILES): CC(C)Oc1cc(NC(=N)c2ccccn2)ccc1-c1ccc(-c2ccc(NC(=N)c3ccccn3)cc2OC(C)C)o1 [DB766]
% inhibition of LdCYP51 at 30 μM (LdCYP51 [12]; 30 μM): <30% inhibition at 30 μM
Selectivity for CYP5122A1 over CYP51 (LdCYP5122A1 [1]): > 30 fold
IC50 (LdCYP5122A1 [1]; read-out: IC50 (LdCYP5122A1), mean ± standard deviation (n = 3)): 1000 ± 100 nM
EC50 ([7]; CYP5122A1 overexpressors): ~12 nM
EC50 ([7]; WT and Ld22A1 + /‒): 1 to 4 nM
IC50 vs. intracellular amastigotes (printed in column EC50 (L. donovani)) [2]: 0.036^f μM

Source: article PMC11528044 (Nature Communications, 2024)
